US20200079765A1, “SUBSTITUTED HETEROARYL PYRROLONES AND SALTS THEREOF AND USE THEREOF AS HERBICIDAL ACTIVE SUBSTANCES” (Bayer CropScience Aktiengesellschaft, priority 2016, published 2020)

Tests used:
Lolium rigidum [1] = assay: Herbicidal pre-emergence action (Experimental Part 2, D); type: in vivo; details: pre-emergence (Part 2), scored visually after about 3 weeks
Description: (§1) Seeds of mono- and dicotyledonous weed plants were placed in plastic pots in sandy loam soil (doubly sown with in each case one species of mono- or dicotyledonous weed plants per pot) and covered with soil. The compounds of the invention, formulated in the form of wettable powders (WP) or as emulsion concentrates (EC), were then applied onto the surface of the covering soil as aqueous suspension or emulsion with addition of 0.5% additive at a water application rate of 600 liters per hectare (converted). After the treatment, the pots are placed in a greenhouse and kept under good growth conditions for the trial plants. After about 3 weeks, the effect of the preparations was scored visually in comparison with untreated controls as percentages. For example, 100% activity=the plants have died, 0% activity=like control plants. Tables D1 to D8 below show the effects of selected compounds of the general formula (I) according to Tables I.1 to I.116 on various harmful plants and an application rate corresponding to 1280 g/ha or 320 g/ha, which were obtained by the experimental procedure mentioned above.

Abutilon theophrasti [2] = assay: as above; type: in vivo; details: pre-emergence (Part 2), application rate 320 g/ha, scored visually after about 3 weeks
Description: as §1

Matricaria inodora [3] = assay: as above; type: in vivo; details: pre-emergence (Part 2), application rate 320 g/ha, scored visually after about 3 weeks
Description: as §1

Amaranthus retroflexus [4] = assay: as above; type: in vivo; details: pre-emergence (Part 2), application rate 320 g/ha, scored visually after about 3 weeks
Description: as §1

Poa annua [5] = assay: as above; type: in vivo; details: pre-emergence (Part 2), application rate 320 g/ha, scored visually after about 3 weeks
Description: as §1

Echinochloa crus-galli [6] = assay: as above; type: in vivo; details: pre-emergence (Part 2), application rate 320 g/ha, scored visually after about 3 weeks
Description: as §1

Stellaria media [7] = assay: as above; type: in vivo; details: pre-emergence (Part 2), application rate 320 g/ha, scored visually after about 3 weeks
Description: as §1

Setaria viridis [8] = assay: as above; type: in vivo; details: pre-emergence (Part 2), scored visually after about 3 weeks
Description: as §1

Lolium rigidum [9] = assay: Herbicidal post-emergence action (Experimental Part 2, C); type: in vivo; details: post-emergence (Part 2), rated visually after about 3 weeks
Protocol: (§2) Seeds of mono- and dicotyledonous weed plants were placed in plastic pots in sandy loam soil (doubly sown with in each case one species of mono- or dicotyledonous weed plants per pot), covered with soil and cultivated in a greenhouse under controlled growth conditions. 2 to 3 weeks after sowing, the test plants were treated at the one-leaf stage. The compounds of the invention, formulated in the form of wettable powders (WP) or as emulsion concentrates (EC), were applied onto the green parts of the plants as aqueous suspension or emulsion with addition of 0.5% additive at a water application rate of 600 liters per hectare (converted). After the test plants had been kept in the greenhouse under optimum growth conditions for about 3 weeks, the activity of the preparations was rated visually in comparison to untreated controls. For example, 100% activity=the plants have died, 0% activity=like control plants. Tables C1 to C8 below show the effects of selected compounds of the general formula (I) according to Tables I.1 to I.116 on various harmful plants and an application rate corresponding to 1280 g/ha or 320 g/ha, which were obtained by the experimental procedure mentioned above.

Abutilon theophrasti [10] = assay: as above; type: in vivo; details: post-emergence (Part 2), application rate 320 g/ha, rated visually after about 3 weeks
Protocol: as §2

Matricaria inodora [11] = assay: as above; type: in vivo; details: post-emergence (Part 2), application rate 320 g/ha, rated visually after about 3 weeks
Protocol: as §2

Amaranthus retroflexus [12] = assay: as above; type: in vivo; details: post-emergence (Part 2), application rate 320 g/ha, rated visually after about 3 weeks
Protocol: as §2

Poa annua [13] = assay: as above; type: in vivo; details: post-emergence (Part 2), application rate 320 g/ha, rated visually after about 3 weeks
Protocol: as §2

Echinochloa crus-galli [14] = assay: as above; type: in vivo; details: post-emergence (Part 2), rated visually after about 3 weeks
Protocol: as §2

Stellaria media [15] = assay: as above; type: in vivo; details: post-emergence (Part 2), application rate 320 g/ha, rated visually after about 3 weeks
Protocol: as §2

Setaria viridis [16] = assay: as above; type: in vivo; details: post-emergence (Part 2), application rate 320 g/ha, rated visually after about 3 weeks
Protocol: as §2

photosystem II (PS II) = biological target: T1, photosystem II (PS II) (Spinacia oleracea, UniProt P69560); assay: Measurement of the PS II activity in thylakoid membranes (DCPIP reduction, Experimental Part 3, Table E1); type: biochemical; details: spinach thylakoid membranes
T1 construct: the chloroplasts were osmotically ruptured and the thylakoid membranes were then obtained by centrifugation; from tissue; host or cells: thylakoid membranes from fresh spinach leaves
Protocol: Cooled fresh spinach leaves were comminuted and homogenized in 50 mM phosphate buffer, pH 6.8. 10 mM KCl, 0.34 M sucrose (sucrose buffer) (blender, 1 g of plant material/ml). The homogenate was subsequently filtered through 4 layers of Miracloth and the chloroplasts were isolated by centrifugation, i.e. 10 min of centrifugation at 4400×g (4° C.). The sediment was suspended in 25 ml of sucrose buffer and re-centrifuged for 10 min at 4400×g (4° C.). The sediment was then suspended in 40 ml of 50 mM phosphate buffer, pH 6.8, 10 mM KCl, without sucrose. In this step, the chloroplasts were osmotically ruptured and the thylakoid membranes were then obtained by centrifugation (10 min, 4400×g, 4° C.). The membrane sediment was finally suspended in about 20 ml of 50 mM phosphate buffer, pH 6.8, 10 mM KCl. Following protein determination and activity determination, the membrane suspension was divided into aliquots and frozen in liquid nitrogen. The aliquots were stored at −80° C. Under these conditions, the photosystem II preparation was storage stable for at least three months. The activity determination of photosystem II (PS II) was then carried out using the following test principle: The electron transfer from PS II to an artificial electron acceptor, 2,6-dichlorophenolindophenol (DCPIP), was measured with exposure to light. The concentration of the blue oxidized form of DCPIP was determined spectrophotometrically at wavelength λ=595 nm. […] The activity determination was carried out in microtiter plates (96 cavities) in a reaction volume of 200 μl. Here, 155 μl of dilute membrane suspension were initially charged in 50 mM of phosphate buffer, pH 6.8, 10 mM KCl. Depending on the activity of the PS II preparation, the dilution was adjusted such that the measurement of the decrease in absorption (λ=595 nm) was linear for at least 10 min. In each case 5 μl solution of the test compounds of a concentration of 100 μM in DMSO were added to the enzyme suspension; controls contained 5 μl DMSO; the final concentration of DMSO in the reaction batch was thus 2.5% (v/v); this concentration had no adverse effect on the enzymatic activity. On each microtiter plate, a known PS II inhibitor, for example metribuzin, was used as standard, which allowed the quality of the PS II test to be assessed. The reaction was started by addition of 40 μl DCPIP solution (600 μM in distilled water); the final concentration of DCPIP was 120 μM. Measurement of absorption was carried out over a period of 10 min at 22° C. and with exposure to light. Using metribuzin as comparative substance, the results for the efficacy of the compounds of the general formula (I) at 100 μM are stated in the table below using the following classification: ++++ (inhibition≥90%), +++ (90%>inhibition≥70%), ++ (70%>inhibition≥50%), + (50%>inhibition≥30%).
Effects of selected compounds of the general formula (I) according to the following table E1: […]

| Structure (SMILES) | Lolium rigidum, herbicidal activity (Lolium rigidum [1]; application rate 320 g/ha) | Abutilon theophrasti, herbicidal activity (Abutilon theophrasti [2]) | Matricaria inodora, herbicidal activity (Matricaria inodora [3]) | Amaranthus retroflexus, herbicidal activity (Amaranthus retroflexus [4]) | Poa Annua, herbicidal activity (Poa annua [5]) | Echinochloa crus-galli, herbicidal activity (Echinochloa crus-galli [6]) | Stellaria media, herbicidal activity (Stellaria media [7]) | Setaria viridis, herbicidal activity (Setaria viridis [8]; application rate 320 g/ha) | Lolium rigidum, herbicidal activity (Lolium rigidum [9]; application rate 320 g/ha) | Abutilon theophrasti, herbicidal activity (Abutilon theophrasti [10]) | Matricaria inodora, herbicidal activity (Matricaria inodora [11]) | Amaranthus retroflexus, herbicidal activity (Amaranthus retroflexus [12]) | Poa Annua, herbicidal activity (Poa annua [13]) | Echinochloa crus-galli, herbicidal activity (Echinochloa crus-galli [14]; application rate 320 g/ha) | Stellaria media, herbicidal activity (Stellaria media [15]) | Setaria viridis, herbicidal activity (Setaria viridis [16]) | Effect (inhibition of PS II activity) (photosystem II (PS II)) | Lolium rigidum, herbicidal activity (Lolium rigidum [9]; application rate 1280 g/ha) | Echinochloa crus-galli, herbicidal activity (Echinochloa crus-galli [14]; application rate 1280 g/ha) | other results |
| --- | --- | --- | --- | --- | --- | --- | --- | --- | --- | --- | --- | --- | --- | --- | --- | --- | --- | --- | --- | --- |
| CC1=CC(O)N(c2cc(C(C)(C)C)on2)C1=O (stereo not drawn) [I.2-162, 5-hydroxy-3-methyl-1-(5-tert-butyl-1,2-isoxazol-3-yl)-1,5-dihydro-2H-pyrrol-2-one] | 90% | 100% | 100% | 100% | 100% | 100% | 100% | 100% | 90% | 100% | 100% | 100% | 100% | 100% | 100% | 100% | ++++ (inhibition≥90%) | – | – | – |
| CCC(=O)OC1C=C(C)C(=O)N1c1cc(C(C)(C)C)no1 (stereo not drawn) [I.6-290] | 90% | 100% | 100% | 100% | 100% | 90% | 100% | 90% | – | 100% | 100% | 100% | 100% | – | 100% | 100% | – | 90% | 100% | – |
| CC1=CC(O)N(c2cc(C(C)(C)C)no2)C1=O (stereo not drawn) [I.2-290, 5-hydroxy-3-methyl-1-(3-tert-butyl-1,2-isoxazol-5-yl)-1,5-dihydro-2H-pyrrol-2-one] | – | 100% | 100% | 100% | 100% | 100% | 100% | – | – | 100% | 100% | 100% | 100% | – | 100% | 100% | ++++ (inhibition≥90%) | 100% | 100% | Lolium rigidum, herbicidal activity (Lolium rigidum [1]; application rate 1280 g/ha): 100%; Setaria viridis, herbicidal activity (Setaria viridis [8]; application rate 1280 g/ha): 100% |
| CC1=CC(O)N(c2noc(C(C)(C)C)c2C)C1=O (stereo not drawn) [I.2-177] | 90% | 100% | 100% | 90% | 100% | 100% | 100% | 100% | 90% | 100% | 100% | 100% | 100% | 100% | 100% | – | ++++ (inhibition≥90%) | – | – | – |
